From publication PMC8571951, “An activity‐based bioprobe differentiates a novel small molecule inhibitor from a LOXL2 antibody and provides renewed promise for anti‐fibrotic therapeutic strategies” (Clinical and Translational Medicine, 2021)

Legend:
[1] = target: T1, LOXL2 (Rattus norvegicus, UniProt B5DF27); experiment: Ex vivo LOXL2 activity after oral dosing in rats (PXS-5878/Simoa); details: 30 mg/kg oral
T1 construct: from tissue; host or cells: rat plasma and lung
T1 sequence (B5DF27 26-776): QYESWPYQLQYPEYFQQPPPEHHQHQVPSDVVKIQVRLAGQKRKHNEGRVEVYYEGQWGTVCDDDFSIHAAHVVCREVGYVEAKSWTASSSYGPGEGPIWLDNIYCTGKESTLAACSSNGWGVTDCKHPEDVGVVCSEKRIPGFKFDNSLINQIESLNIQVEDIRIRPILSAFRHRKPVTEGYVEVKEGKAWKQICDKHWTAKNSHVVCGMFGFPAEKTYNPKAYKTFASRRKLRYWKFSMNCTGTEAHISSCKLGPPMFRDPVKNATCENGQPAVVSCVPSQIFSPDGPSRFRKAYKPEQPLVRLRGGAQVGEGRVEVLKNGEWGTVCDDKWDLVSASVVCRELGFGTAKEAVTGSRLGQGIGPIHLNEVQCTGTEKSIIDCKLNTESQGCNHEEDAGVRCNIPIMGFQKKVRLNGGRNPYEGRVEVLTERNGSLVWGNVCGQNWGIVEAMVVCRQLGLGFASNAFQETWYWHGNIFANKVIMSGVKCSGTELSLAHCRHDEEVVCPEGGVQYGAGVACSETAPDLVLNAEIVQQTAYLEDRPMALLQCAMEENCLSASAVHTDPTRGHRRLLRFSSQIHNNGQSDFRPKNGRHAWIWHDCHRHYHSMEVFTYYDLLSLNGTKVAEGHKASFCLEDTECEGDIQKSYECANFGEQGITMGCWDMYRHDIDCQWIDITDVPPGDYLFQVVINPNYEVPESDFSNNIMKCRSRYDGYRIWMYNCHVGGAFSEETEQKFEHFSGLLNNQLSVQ
Description: FIGURE 2 Characteristics of PXS‐5338 and inhibition of lysyl oxidase‐like 2 (LOXL2) enzymatic activity in vitro and in vivo. (A) Chemical structure of PXS‐5338. […] (B) Tissue levels of PXS‐5338 measured 1 and 4 h after a single oral dose of 30 mg/kg in the rat. […] Average data from three different animals. (C) Concentration‐dependent inhibition of native […] LOX and rh LOXL1‐4 in a standard Amplex Red assay with 30 min pre‐incubation; n ≥3 independent experiments, standard error of mean (SEM). (D) PXS‐5338 inhibits rh LOXL2 in a time‐dependent manner, with increasing potency observed upon longer incubation with the enzyme. LOXL2 activity data devised from Amplex Red assay using putrescine as substrate and varying pre‐incubation times; n ≥3 independent experiments, standard error of mean (SEM). […] AB0023 and the corresponding isotype control antibody GS834298 were kindly provided by Gilead. Concentration‐response curves for the pan‐LOX inhibitor BAPN and LOXL2‐selective inhibitor PXS‐5338 are included for comparison. Data represented as mean ± SD with n = 5/concentration. […] To enable translation of preclinical data into the clinic, human plasma was incubated with different concentrations of PXS‐5338 for 30 min and the PXS‐5878/Simoa® platform used to measure the residual activity. […]

[2] = Oral bioavailability; details: in vivo

Inhibition of LOXL2 activity in the lung (as in plasma) ([1]; 4 h): almost complete inhibition
Inhibition of LOXL2 activity remaining ([1]; 24 h): no inhibition remained
Oral bioavailability [2]: good oral bioavailability
SMILES: CC(C)c1c(Cc2ccc(S(C)(=O)=O)nc2)c2ncccc2n1C/C(F)=C/CN [PXS‐5338]
